Results taken from ChEMBL document CHEMBL4507298 (2021).

Legend:
[1] = target: Sodium-dependent serotonin transporter (Homo sapiens) (UniProt P31645); assay: 5-HT transporter (h) CEREP ligand profiling; settings: Compound concentration 10.0 uM
[2] = target: 5-hydroxytryptamine receptor 7 (Homo sapiens) (UniProt P34969); assay: 5-HT7 (h) CEREP ligand profiling; settings: Compound concentration 10.0 uM
[3] = target: Adenosine receptor A3 (Homo sapiens) (UniProt P0DMS8); assay: A3 (h) CEREP ligand profiling; settings: Compound concentration 10.0 uM
[4] = target: Voltage-gated L-type calcium channel (diltiazem site) (Homo sapiens, UniProt O60840+Q01668+Q13698+Q13936); assay: Ca2+ channel (L, diltiazem site) CEREP ligand profiling; format: protein assay; settings: compound concentration 10 uM
[5] = target: D(2) dopamine receptor (Homo sapiens) (UniProt P14416); assay: D2S (h) (agonist site) CEREP ligand profiling; settings: Compound concentration 10.0 uM
Sequence of D(2) dopamine receptor (Homo sapiens) (P14416 whole entry): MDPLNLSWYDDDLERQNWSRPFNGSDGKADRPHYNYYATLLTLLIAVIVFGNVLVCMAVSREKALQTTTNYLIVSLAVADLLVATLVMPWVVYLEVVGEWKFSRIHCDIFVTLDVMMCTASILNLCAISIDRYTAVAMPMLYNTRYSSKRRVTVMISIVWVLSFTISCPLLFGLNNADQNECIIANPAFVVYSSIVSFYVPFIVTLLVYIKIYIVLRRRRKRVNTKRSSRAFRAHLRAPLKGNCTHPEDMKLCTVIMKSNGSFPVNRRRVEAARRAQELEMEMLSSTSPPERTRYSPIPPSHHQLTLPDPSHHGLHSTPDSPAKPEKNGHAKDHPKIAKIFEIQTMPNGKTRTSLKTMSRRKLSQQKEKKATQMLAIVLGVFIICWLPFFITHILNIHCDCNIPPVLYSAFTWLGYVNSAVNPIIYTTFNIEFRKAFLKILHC

Histamine H4 receptor = Histamine H4 receptor (Homo sapiens, UniProt Q9H3N8); assay: H4 (h) CEREP ligand profiling; settings: Compound concentration 10.0 uM
[6] = target: T1, Muscarinic acetylcholine receptor M2 (Homo sapiens) (UniProt P08172); assay: M2 (h) CEREP ligand profiling; settings: Compound concentration 10.0 uM
T1 sequence (whole entry): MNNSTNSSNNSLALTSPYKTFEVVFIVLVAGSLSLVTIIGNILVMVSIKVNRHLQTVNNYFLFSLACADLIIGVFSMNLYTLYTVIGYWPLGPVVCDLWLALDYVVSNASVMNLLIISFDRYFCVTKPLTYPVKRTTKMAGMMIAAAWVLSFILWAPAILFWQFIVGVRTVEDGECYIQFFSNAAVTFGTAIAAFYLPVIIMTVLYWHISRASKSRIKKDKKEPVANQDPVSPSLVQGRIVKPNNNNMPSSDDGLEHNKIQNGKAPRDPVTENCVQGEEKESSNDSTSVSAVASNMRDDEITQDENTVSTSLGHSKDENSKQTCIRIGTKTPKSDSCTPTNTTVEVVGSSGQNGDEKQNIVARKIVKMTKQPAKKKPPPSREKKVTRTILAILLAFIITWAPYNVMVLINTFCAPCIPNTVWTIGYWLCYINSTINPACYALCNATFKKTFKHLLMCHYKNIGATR

[7] = target: Neuronal acetylcholine receptor; alpha4/beta2 (Homo sapiens) (UniProt P17787+P43681); assay: N (neuronal) (alpha -BGTX-insensitive) (alpha 4 beta 2) CEREP ligand profiling; format: protein-complex assay; settings: Compound concentration 10.0 uM
[8] = target: Phosphodiesterase 4 (Rattus norvegicus) (UniProt P14270+P14646+P14644+P54748); assay: Rolipram CEREP ligand profiling; format: protein assay; settings: Compound concentration 10.0 uM
[9] = target: Calcium-activated potassium channel (Homo sapiens) (UniProt Q92952+Q9UGI6+Q12791+O15554+Q9H2S1+A8MYU2); assay: SK+Ca channel CEREP ligand profiling; format: protein assay; settings: Compound concentration 10.0 uM
[10] = target: Vasopressin V1a receptor (Homo sapiens) (UniProt P37288); assay: V1a (h) CEREP ligand profiling; settings: Compound concentration 10.0 uM
[11] = test system: Tyrosine-protein kinase ABL1 (Homo sapiens), P00519 [H396P]; settings: Compound concentration 1000.0 nM
[12] = target: Activin receptor type-1B (Homo sapiens) (UniProt P36896); settings: Compound concentration 1000.0 nM
[13] = target: ALK tyrosine kinase receptor (Homo sapiens) (UniProt Q9UM73); settings: Compound concentration 1000.0 nM
Sequence of ALK tyrosine kinase receptor (Homo sapiens) (Q9UM73 19-1620 limits assumed): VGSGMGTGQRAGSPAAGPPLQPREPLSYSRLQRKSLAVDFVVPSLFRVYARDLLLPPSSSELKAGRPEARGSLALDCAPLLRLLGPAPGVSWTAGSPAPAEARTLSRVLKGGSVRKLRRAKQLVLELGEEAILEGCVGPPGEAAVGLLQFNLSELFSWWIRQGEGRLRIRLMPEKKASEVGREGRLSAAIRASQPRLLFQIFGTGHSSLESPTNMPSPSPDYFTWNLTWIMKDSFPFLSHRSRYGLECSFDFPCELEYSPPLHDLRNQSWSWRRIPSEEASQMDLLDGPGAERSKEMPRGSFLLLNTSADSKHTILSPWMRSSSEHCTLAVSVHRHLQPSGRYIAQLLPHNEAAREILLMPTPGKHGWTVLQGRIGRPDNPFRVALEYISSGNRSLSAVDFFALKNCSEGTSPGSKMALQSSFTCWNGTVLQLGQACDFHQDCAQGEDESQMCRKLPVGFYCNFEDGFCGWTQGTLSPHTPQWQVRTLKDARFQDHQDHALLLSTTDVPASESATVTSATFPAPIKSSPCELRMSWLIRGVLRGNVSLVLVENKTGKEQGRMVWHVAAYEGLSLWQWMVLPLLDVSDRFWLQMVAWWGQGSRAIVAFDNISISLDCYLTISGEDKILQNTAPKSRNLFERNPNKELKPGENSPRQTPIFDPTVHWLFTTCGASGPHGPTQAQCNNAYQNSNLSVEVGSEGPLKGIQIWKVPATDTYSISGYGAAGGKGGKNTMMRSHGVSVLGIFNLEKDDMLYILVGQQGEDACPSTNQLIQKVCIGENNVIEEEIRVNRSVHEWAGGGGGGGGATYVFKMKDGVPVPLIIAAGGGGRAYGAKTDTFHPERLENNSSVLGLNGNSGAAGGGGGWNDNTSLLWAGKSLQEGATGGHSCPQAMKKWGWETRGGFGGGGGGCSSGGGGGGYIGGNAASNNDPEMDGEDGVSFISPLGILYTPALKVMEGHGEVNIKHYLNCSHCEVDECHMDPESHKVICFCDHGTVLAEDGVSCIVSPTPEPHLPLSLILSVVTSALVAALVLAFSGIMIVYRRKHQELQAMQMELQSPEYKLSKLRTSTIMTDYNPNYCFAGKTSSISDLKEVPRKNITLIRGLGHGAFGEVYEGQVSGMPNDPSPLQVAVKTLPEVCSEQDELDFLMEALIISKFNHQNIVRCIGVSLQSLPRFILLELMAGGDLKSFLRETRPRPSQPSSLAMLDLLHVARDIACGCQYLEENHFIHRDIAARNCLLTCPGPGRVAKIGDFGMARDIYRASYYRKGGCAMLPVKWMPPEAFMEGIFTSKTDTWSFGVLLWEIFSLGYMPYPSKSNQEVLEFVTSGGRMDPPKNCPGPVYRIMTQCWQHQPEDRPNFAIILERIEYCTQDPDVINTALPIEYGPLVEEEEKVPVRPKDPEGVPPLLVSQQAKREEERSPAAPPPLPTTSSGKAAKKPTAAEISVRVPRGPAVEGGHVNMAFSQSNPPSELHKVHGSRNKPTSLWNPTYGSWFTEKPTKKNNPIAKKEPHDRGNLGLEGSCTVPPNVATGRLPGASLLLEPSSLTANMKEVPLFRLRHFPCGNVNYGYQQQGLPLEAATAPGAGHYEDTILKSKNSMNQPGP

[14] = test system: ALK tyrosine kinase receptor (Homo sapiens), Q9UM73 [C1156Y]; settings: Compound concentration 1000.0 nM
[15] = target: Bone morphogenetic protein receptor type-1A (Homo sapiens) (UniProt P36894); settings: Compound concentration 1000.0 nM
[16] = target: Bone morphogenetic protein receptor type-1B (Homo sapiens) (UniProt O00238); settings: Compound concentration 1000.0 nM
[17] = target: Macrophage colony-stimulating factor 1 receptor (Homo sapiens) (UniProt P07333); settings: Compound concentration 1000.0 nM
[18] = target: Dual specificity tyrosine-phosphorylation-regulated kinase 2 (Homo sapiens) (UniProt Q92630); settings: Compound concentration 1000.0 nM
Sequence of Dual specificity tyrosine-phosphorylation-regulated kinase 2 (Homo sapiens) (Q92630 whole entry): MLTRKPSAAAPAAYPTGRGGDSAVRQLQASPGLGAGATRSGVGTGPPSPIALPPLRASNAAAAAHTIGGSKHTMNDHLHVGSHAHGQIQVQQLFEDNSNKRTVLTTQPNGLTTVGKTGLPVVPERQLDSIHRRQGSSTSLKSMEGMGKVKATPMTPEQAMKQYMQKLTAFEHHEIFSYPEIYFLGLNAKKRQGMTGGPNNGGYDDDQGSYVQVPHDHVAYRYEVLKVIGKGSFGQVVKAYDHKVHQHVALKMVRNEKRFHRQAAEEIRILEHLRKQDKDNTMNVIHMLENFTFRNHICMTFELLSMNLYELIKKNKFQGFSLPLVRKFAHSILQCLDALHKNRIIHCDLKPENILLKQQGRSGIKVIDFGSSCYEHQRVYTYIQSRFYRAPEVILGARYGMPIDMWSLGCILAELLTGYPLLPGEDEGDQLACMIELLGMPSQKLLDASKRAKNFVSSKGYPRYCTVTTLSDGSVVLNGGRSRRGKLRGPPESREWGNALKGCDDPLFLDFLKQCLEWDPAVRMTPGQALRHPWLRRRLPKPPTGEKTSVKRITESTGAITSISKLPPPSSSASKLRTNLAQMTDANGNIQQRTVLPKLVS

[19] = target: Ephrin type-A receptor 3 (Homo sapiens) (UniProt P29320); settings: Compound concentration 1000.0 nM
[20] = test system: Receptor-type tyrosine-protein kinase FLT3 (Homo sapiens), P36888 [N841I]; settings: Compound concentration 1000.0 nM
[21] = target: Mitogen-activated protein kinase kinase kinase kinase 1 (Homo sapiens) (UniProt Q92918); settings: Compound concentration 1000.0 nM
[22] = target: Inhibitor of nuclear factor kappa-B kinase subunit epsilon (Homo sapiens) (UniProt Q14164); settings: Compound concentration 1000.0 nM
[23] = target: Dual specificity mitogen-activated protein kinase kinase 3 (Homo sapiens) (UniProt P46734); settings: Compound concentration 1000.0 nM
[24] = target: Maternal embryonic leucine zipper kinase (Homo sapiens) (UniProt Q14680); settings: Compound concentration 1000.0 nM
[25] = target: Serine/threonine-protein kinase PAK 3 (Homo sapiens) (UniProt O75914); settings: Compound concentration 1000.0 nM
Sequence of Serine/threonine-protein kinase PAK 3 (Homo sapiens) (O75914 whole entry, looked up, canonical isoform): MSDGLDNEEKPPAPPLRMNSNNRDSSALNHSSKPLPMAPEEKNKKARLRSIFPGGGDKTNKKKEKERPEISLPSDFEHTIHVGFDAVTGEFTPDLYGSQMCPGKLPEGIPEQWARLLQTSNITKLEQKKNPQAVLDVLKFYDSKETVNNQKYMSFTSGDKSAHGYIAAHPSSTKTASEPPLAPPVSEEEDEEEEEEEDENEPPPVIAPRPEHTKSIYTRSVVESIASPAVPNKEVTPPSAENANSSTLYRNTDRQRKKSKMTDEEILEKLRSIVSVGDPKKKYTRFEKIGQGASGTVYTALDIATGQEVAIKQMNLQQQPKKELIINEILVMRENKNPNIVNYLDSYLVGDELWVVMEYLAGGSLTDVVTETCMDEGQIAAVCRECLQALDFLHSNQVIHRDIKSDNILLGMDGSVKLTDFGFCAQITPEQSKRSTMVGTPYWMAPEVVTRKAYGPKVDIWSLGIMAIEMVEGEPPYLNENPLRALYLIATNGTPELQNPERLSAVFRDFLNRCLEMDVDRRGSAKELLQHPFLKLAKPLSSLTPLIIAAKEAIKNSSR

[26] = test system: Phosphatidylinositol 4,5-bisphosphate 3-kinase catalytic subunit alpha isoform (Homo sapiens), P42336 [Q546K]; settings: Compound concentration 1000.0 nM
[27] = target: Serine/threonine-protein kinase PLK4 (Homo sapiens) (UniProt O00444); settings: Compound concentration 1000.0 nM
Sequence of Serine/threonine-protein kinase PLK4 (Homo sapiens) (O00444 whole entry): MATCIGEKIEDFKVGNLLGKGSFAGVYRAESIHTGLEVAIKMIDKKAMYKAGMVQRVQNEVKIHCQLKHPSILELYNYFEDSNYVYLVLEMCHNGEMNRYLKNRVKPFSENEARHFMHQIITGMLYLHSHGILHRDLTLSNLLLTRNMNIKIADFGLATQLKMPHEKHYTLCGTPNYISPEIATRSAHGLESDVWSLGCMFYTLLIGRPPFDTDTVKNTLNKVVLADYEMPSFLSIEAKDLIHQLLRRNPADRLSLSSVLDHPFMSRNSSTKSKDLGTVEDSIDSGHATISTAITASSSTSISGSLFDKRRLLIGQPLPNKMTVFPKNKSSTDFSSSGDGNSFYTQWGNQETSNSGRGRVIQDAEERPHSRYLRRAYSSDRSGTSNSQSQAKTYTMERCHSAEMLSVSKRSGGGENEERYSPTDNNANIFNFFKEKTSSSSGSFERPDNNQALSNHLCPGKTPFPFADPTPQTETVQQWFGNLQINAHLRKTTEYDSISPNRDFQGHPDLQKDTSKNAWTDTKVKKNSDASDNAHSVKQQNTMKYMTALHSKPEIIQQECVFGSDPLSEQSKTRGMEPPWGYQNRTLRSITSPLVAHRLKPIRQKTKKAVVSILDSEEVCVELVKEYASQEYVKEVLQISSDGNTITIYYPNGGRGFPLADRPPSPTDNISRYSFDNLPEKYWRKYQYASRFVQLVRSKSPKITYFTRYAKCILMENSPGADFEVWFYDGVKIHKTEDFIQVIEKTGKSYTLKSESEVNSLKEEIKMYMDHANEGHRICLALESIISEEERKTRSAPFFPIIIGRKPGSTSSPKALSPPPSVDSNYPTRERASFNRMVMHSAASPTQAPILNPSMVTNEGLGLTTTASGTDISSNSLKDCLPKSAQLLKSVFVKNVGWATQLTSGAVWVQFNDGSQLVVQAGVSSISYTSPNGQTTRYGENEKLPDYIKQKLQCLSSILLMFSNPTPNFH

[28] = target: Ribosomal protein S6 kinase alpha-4 (Homo sapiens) (UniProt O75676); settings: Compound concentration 1000.0 nM
[29] = target: NUAK family SNF1-like kinase 2 (Homo sapiens) (UniProt Q9H093); settings: Compound concentration 1000.0 nM
[30] = target: Serine/threonine-protein kinase 33 (Homo sapiens) (UniProt Q9BYT3); settings: Compound concentration 1000.0 nM
[31] = target: Dual specificity testis-specific protein kinase 1 (Homo sapiens) (UniProt Q15569); settings: Compound concentration 1000.0 nM
Sequence of Dual specificity testis-specific protein kinase 1 (Homo sapiens) (Q15569 whole entry, looked up): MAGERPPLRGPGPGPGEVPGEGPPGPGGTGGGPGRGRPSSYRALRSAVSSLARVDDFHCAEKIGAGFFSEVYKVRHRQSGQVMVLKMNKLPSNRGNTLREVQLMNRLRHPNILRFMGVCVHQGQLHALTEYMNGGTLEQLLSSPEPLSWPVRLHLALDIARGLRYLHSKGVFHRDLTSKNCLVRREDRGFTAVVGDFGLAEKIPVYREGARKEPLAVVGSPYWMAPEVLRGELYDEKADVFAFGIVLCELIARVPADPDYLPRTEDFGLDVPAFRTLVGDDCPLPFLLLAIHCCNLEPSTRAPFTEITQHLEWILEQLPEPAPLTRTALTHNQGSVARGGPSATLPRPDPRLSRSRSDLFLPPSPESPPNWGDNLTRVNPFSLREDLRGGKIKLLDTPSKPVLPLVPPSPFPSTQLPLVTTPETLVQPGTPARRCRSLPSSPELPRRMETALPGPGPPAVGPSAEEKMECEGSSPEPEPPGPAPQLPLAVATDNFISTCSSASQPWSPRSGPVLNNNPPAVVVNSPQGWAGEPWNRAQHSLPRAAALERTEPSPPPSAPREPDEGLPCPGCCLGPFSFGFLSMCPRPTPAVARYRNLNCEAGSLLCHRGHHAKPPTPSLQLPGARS

[32] = target: Serine/threonine-protein kinase tousled-like 1 (Homo sapiens) (UniProt Q9UKI8); settings: Compound concentration 1000.0 nM
[33] = target: Non-receptor tyrosine-protein kinase TYK2 (Homo sapiens) (UniProt P29597); settings: Compound concentration 1000.0 nM

`COc1ccc2cc(OCC3(C(=O)O)CN(C(=O)c4ccc(F)cc4)C3)ccc2c1` [PF-04418948] was tested, and the inhibition [1] was -8%, the inhibition [2] was -2% and the inhibition [3] was -10%. For the same molecule, the inhibition at 10 µM [4] was 6% (not active), the inhibition [5] was -6% and the inhibition (Histamine H4 receptor) was -4%. It also gave an inhibition [6] of 1%, an inhibition [7] of -10% and an inhibition [8] of 3%. It also gave an inhibition [9] of -1%, an inhibition [10] of -3% and a residual activity [11] of 74%. The residual activity [12] was 78%, the residual activity [13] was 79% and the residual activity [14] was 79%. It also gave a residual activity [15] of 88%, a residual activity [16] of 95% and a residual activity [17] of 75%. For the same molecule, the residual activity [18] was 84%, the residual activity [19] was 92% and the residual activity [20] was 76%. The residual activity [21] was 95%, the residual activity [22] was 95% and the residual activity [23] was 95%. For the same molecule, the residual activity [24] was 86%, the residual activity [25] was 94% and the residual activity [26] was 42%. The residual activity [27] was 82%, the residual activity [28] was 85% and the residual activity [29] was 92%. It also gave a residual activity [30] of 98%, a residual activity [31] of 98% and a residual activity [32] of 87%. The residual activity [33] was 89%.
